{"source": "patent US20010014347A1", "about": "“WETTABLE OR WATER-SOLUBLE GRANULAR AGROCHEMICAL COMPOSITION” (priority 1997, published 2001)", "test": "Solubility in water", "format": "physicochemical", "details": "water at 20° C.", "data": [{"smiles": "CN/C(=N\\[N+](=O)[O-])NCc1cnc(Cl)s1", "note": "[compound (II)]", "values": [{"measurement": "solubility", "value": "≤ 300", "unit": "µg/mL"}]}]}
